The record followed here is patent US20160368872A1, “COMPOUNDS AND METHODS FOR TREATING CANCERS” (HEALTH RESEARCH, INC., priority 2013, published 2016).

The nature of data set [1]: aqueous solubility (pH 7.4). The format is physicochemical.
For a further data set, the system named is CWR22R cells. The format is cell-based. How it is done:
(§1) All compounds were tested for toxicity using 4 cells lines, target cells-CWR22R and non-target cells, Hela, PC3 and MDA-MB-231 (FIGS. 1A-F).
LC50 data of in vitro 72 hours cytotoxicity assay are included in this table for comparison.

A short description of data set [2]: solubility for in vivo administration. The format is physicochemical.
Data set [3] can be described thus: tissue drug concentrations in mice bearing CWR22R tumors. The data set is classed as in vivo, SCID mice. How it is done:
(§2) We tested these compounds in an in vivo efficacy experiment using model of CRPC in SCID mice, CWR22R. Two compounds, PLA1079 and 1125, which were synthesized in the amount of 500 mg were tested in full scale experiment with either 5 IV daily injections or 10 IP daily injections. After 5 IP or IV injections intra-tumor concentration of the compounds were measured in few mice from this experiment.
Two other compounds, PLA1148 and 1098 (PK testing in FIGS. 8 and 9) were tested in a small scale efficacy experiment. Upon PK testing of the compound PLA1148 one mouse was injected twice with 10 min interval. However the concentration of the drug in plasma of this mouse was not twice, but >4 times higher than in mice injected once. […] It was decided to utilize this observation in an attempt to get higher plasma and tumor concentration of both compounds. Therefore in the pilot efficacy experiment in the same model of CWR22R cells mice were treated with 2 IP injections with 10 minute interval. Treatment with PLA1098 was carried out for two days. […] However this is so far the highest concentration found in tumor. […]

Data set [4] in a line: plasma concentration after intravenous and intraperitoneal injections (PK). The format is in vivo. The conditions noted are these: for bioavailability through IP injection: IP versus IV, doses 50-100 mg/kg; for course of plasma concentration: after intravenous and intraperitoneal injections, 50-100 mg/kg.
The test system of a further data set is CWR22R tumors. Description: in vivo efficacy, subcutaneous xenografts of CWR22R cells in SCID mice. The procedure:
as §2
(§3) Two other compounds, PLA1148 and 1098 (PK testing in FIGS. 8 and 9) were tested in a small scale efficacy experiment. Upon PK testing of the compound PLA1148 one mouse was injected twice with 10 min interval. However the concentration of the drug in plasma of this mouse was not twice, but >4 times higher than in mice injected once. […] It was decided to utilize this observation in an attempt to get higher plasma and tumor concentration of both compounds. Therefore in the pilot efficacy experiment in the same model of CWR22R cells mice were treated with 2 IP injections with 10 minute interval. Treatment with PLA1098 was carried out for two days. […] However this is so far the highest concentration found in tumor.
Pilot efficacy experiments were run for compounds: PLA1163, PLA1148 using the same model of subcutaneous xenografts of CWR22R cells in SCID mice (FIGS. 18 and 19).

In the next data set the test system is Hela. Briefly: inhibition of growth of cell lines (IC50 categories). The format is cell-based. The conditions noted are these: Homo sapiens. How it is done: (§4) This example provides a table (below) of the compounds of the present disclosure and their activity towards four different cell lines (i.e., CWR22R, Hela, PC3, and MDA-MB-231). The IC50 for inhibition of growth is divided into 4 categories: A<1 μM, B 1-5 μM, […], D>20 μM.
as §1

In a further data set the test system is CWR22R. The data set is described as above. The data set is classed as cell-based. The note with it: Homo sapiens, 22Rv1. How it is done:
as §4, §1

The subject of another data set is MDA-MB-231. Described as above. The data set is classed as cell-based. The note with it: Homo sapiens. How it is done:
as §4, §1

Another data set concerns PC3. The data set is described as above. The data set is classed as cell-based. The conditions noted are these: Homo sapiens, PC-3. The procedure: as §4, §1
Data set [5] can be described thus: metabolic stability in the presence of mouse liver microsomes. The data set is classed as in vitro ADME. The procedure: 8 compounds were selected based on the solubility and metabolic stability as well as considering chemical diversity to test for time dependence stability in the presence of mouse […] (FIG. 2). […] Two compounds, PLA1190 and 1197, have desirable metabolic stability, 70 and 77% left after 30 minute incubation with mouse liver microsome respectively. Formulations for in vivo administration were developed for 4 compounds, PLA1079, 1125, 1098 and 1148.

A short description of data set [6]: toxicity observed in mice of the pilot efficacy experiments. The format is in vivo. The note with it: 2 IP injections with 10 minute interval, one day. The procedure:
as §3
This compound may be also potentially promising.

Where [7] appears, read: one mouse at 24 hours after injections.

SMILES strings stand for the structures.

Take `CC(=O)c1ccc2c(c1)c1c(C(N)=O)cccc1n2CCCF` [PLA1191]: in data set [1], the “Aqueous Solubility Classification” value is given as “High” and the “Aqueous Solubility (pH 7.4)” value is 130 μM.

For `O=C1NCCOc2c1ccc1c2c2ccccc2n1CCCF` [PLA1163], half-maximal cytotoxicity with CWR22R cells (CC50) was put at 200 nM. For the same molecule, the solubility entry in data set [2] is given as “poorly soluble”. Moreover, in data set [3] (40 mg/kg, IP), the “Liver” value was 307 nM and the “Tumor concentration” value lay in the range of 4 to 10 nM.

As for `O=c1c2ccc3c(c2ccn1CCO)c1ccccc1n3CCCF` [PLA1192], in data set [1], the “Aqueous Solubility Classification” value is “Moderate” and the “Aqueous Solubility (pH 7.4)” value stood at 15 μM.

Regarding `O=C1CCc2c1ccc1c2c2cc(Br)ccc2n1CCCF` [PLA1199], in data set [1], the “Aqueous Solubility Classification” value is reported as “Low” and the “Aqueous Solubility (pH 7.4)” value was 2.3 μM.

As to `CC(=O)c1ccc2c(c1)c1c3c(ccc1n2CCCF)C(=O)CC3` [PLA1198], in [1], the “Aqueous Solubility Classification” value was “Low” and the “Aqueous Solubility (pH 7.4)” value came to 2.5 μM.

For the molecule `O=c1[nH]ccc2c1ccc1c2c2ncccc2n1CCCF` [PLA1181], the “Aqueous Solubility Classification” value in [1] was “Low”.

Take `O=c1c2ccc3c(c2ccn1CCN1CCCC1)c1ccccc1n3CCCF` [PLA1193]: in data set [1], the “Aqueous Solubility Classification” value is listed as “High” and the “Aqueous Solubility (pH 7.4)” value is given as 140 μM.

In the case of `O=c1[nH]ccc2c1ccc1c2c2ccccc2n1CCCF` [PLA1121], the solubility entry in data set [2] is “poorly soluble”.

Consider `N#Cc1cccc2c1c1c3cc[nH]c(=O)c3ccc1n2CCCF` [PLA1195], for which, in [1], the “Aqueous Solubility Classification” value is listed as “Low” and the “Aqueous Solubility (pH 7.4)” value is reported as 2.7 μM.

As to `FCCCn1c2ccccc2c2cc(-c3nnco3)ccc21` [PLA1125], in data set [4], the “bioavailability through IP injection” value is “very high bioavailability” and the “course of plasma concentration” value is recorded as “fast reduction of concentration during the first hour”. Moreover, in the data set with CWR22R tumors (5 IV daily injections or 10 IP daily injections), the in vivo efficacy result is “absence of in vivo efficacy”. For the same molecule, the CC50 (commonly the concentration giving 50% cytotoxicity) with CWR22R cells was 100 nM. Further, the “Tumor concentration” value in data set [3] (100 mg/kg, IP/IV) lay in the range of 7 to 10 nM.

Take `O=C1CCOc2c1ccc1c2c2ccccc2n1CCCF` [Compound 1-9]: the IC50 (in general, the concentration that inhibits the measured activity by half) is more than 20 µM in the data set with Hela, less than 1000 nM with CWR22R, more than 20 µM with MDA-MB-231 and more than 20 µM in the data set with PC3.

Regarding `O=C1NCCCc2c1ccc1c2c2ccccc2n1CCCF` [Compound 2-3], the IC50 in the data set with Hela is 5 to 20 µM; with CWR22R, 1000 to 5000 nM; in the data set on MDA-MB-231, 5 to 20 µM; in the data set with PC3, more than 20 µM.

With `O=c1[nH]c2ccc3c(c4ccccc4n3CCCF)c2o1` [PLA1190], in [1], the “Aqueous Solubility Classification” value is recorded as “Low” and the “Aqueous Solubility (pH 7.4)” value was 3.5 μM. The “left after 30 minute incubation with mouse liver microsome” value in [5] came out at 70%.

For the molecule `O=C1CCc2c1ccc1c2c2ncccc2n1CCCF` [Compound 10-2], the IC50 was more than 20 µM in the data set on Hela, less than 1000 nM in the data set with CWR22R, 5 to 20 µM with MDA-MB-231 and 5 to 20 µM with PC3.

Take `O=C1CCc2c1ccc1c2c2c(F)cccc2n1CCCF` [PLA1197]: in data set [1], the “Aqueous Solubility Classification” value is “Low” and the “Aqueous Solubility (pH 7.4)” value was 4.0 μM. In addition, in data set [5], the “left after 30 minute incubation with mouse liver microsome” value stood at 77%.

In the case of `CN1Cc2c(ccc3c2c2ccccc2n3CCC(F)F)C1=O` [PLA1194], in [1], the “Aqueous Solubility Classification” value is on record as “Moderate” and the “Aqueous Solubility (pH 7.4)” value is reported as 18 μM.

As to `O=C1NCCOc2c1ccc1c2c2ncccc2n1CCCF` [Compound 11-3], the IC50 was more than 20 µM in the data set on Hela, 1000 to 5000 nM in the data set on CWR22R, more than 20 µM with MDA-MB-231 and more than 20 µM with PC3.

`CCCn1c2ccccc2c2c3cc[nH]c(=O)c3ccc21` [PLA1099]: the solubility result in data set [2] is listed as “poorly soluble”.

For the molecule `CN1Cc2c(ccc3c2c2ncccc2n3CCCF)C1=O` [Compound 14-1, 6-(3-Fluoropropyl)-2-methyl-1,2-dihydro-6H-2,6,10-triazacyclopenta[c]fluoren-3-one], the concentration for half-maximal inhibition (IC50) in the data set on Hela was more than 20 µM; with CWR22R it was less than 1000 nM; in the data set with MDA-MB-231, 5 to 20 µM; in the data set on PC3 it was more than 20 µM.

For `O=C1CCCc2c1ccc1c2c2ccccc2n1CCCF` [Compound 1-5], the IC50 in the data set with Hela was more than 20 µM; in the data set on CWR22R, less than 1000 nM; with MDA-MB-231 it was more than 20 µM; in the data set on PC3 it was more than 20 µM.

With `CCCn1c2ccccc2c2c3c(ccc21)CC(=O)N3C` [Compound 6-1, 1-Methyl-6-propyl-3,6-dihydro-1H-pyrrolo[3,2-c]carbazol-2-one], the IC50 with Hela was more than 20 µM; in the data set on CWR22R, less than 1000 nM; with MDA-MB-231, more than 20 µM; with PC3, more than 20 µM.

Take `CCCn1c2cccnc2c2c3c(ccc21)C(=O)NCC3` [Compound 11-1, 7-Propyl-1,2,3,7-tetrahydro-3,7,11-triazabenzo[c]fluoren-4-one]: the IC50 in the data set with Hela was more than 20 µM; in the data set on CWR22R, 5000 to 20000 nM; in the data set on MDA-MB-231, more than 20 µM; in the data set with PC3, more than 20 µM.

As to `O=C1NCCc2c1ccc1c2c2ncccc2n1CCCF` [PLA1148], in [6], the deaths of mice was 2 mice died next day and 3 other during next 5 days; the toxicity after injection result is listed as “acute toxicity developed quickly after injection, symptoms suggested acute liver failure”. Moreover, in [4], the “bioavailability through IP injection” value was “very high bioavailability” and the “course of plasma concentration” value was “fast reduction of concentration during the first hour”. For the same molecule, the “concentration in plasma of mouse injected twice with 10 min interval versus mice injected once” value in data set [4] (one mouse injected twice) was more than 4 times. Besides, the “tumors of mice that died on the 5th day” value with CWR22R tumors (two mice, injected only one day) was “almost undetectable tumors”. Moreover, in data set [3] (50 mg/kg, IP), the “Liver” value is listed as 50 nM and the “Tumor concentration” value fell in the range of 0 to 90 nM. In addition, in [3] (48 hours after treatment), the Tumor concentration came out at 84 nM and the liver concentration worked out at 49 nM. Moreover, the plasma concentration entry in data set [3] (mice euthanized at 48 hours after treatment) was “The same plasma concentration”. Further, in data set [3] (setting [7]), the drug in liver entry is recorded as “no drug detected”, the drug in tumor entry is on record as “no drug detected” and the plasma concentration was 8.5 nM.

For `NC(=O)c1cccc2c1c1c3cc[nH]c(=O)c3ccc1n2CCCF` [PLA1196], in [1], the “Aqueous Solubility Classification” value is given as “Moderate” and the “Aqueous Solubility (pH 7.4)” value is given as 26 μM.

On to `CCCn1c2ccccc2c2c3c(ccc21)C(=O)CC3` [Compound 1-1, 6-Propyl-1,2-dihydro-6H-cyclopenta[c]carbazol-3-one], for which the IC50 in the data set with Hela is more than 20 µM; in the data set with CWR22R it was less than 1000 nM; with MDA-MB-231, more than 20 µM; in the data set on PC3, more than 20 µM.

On to `CN1Cc2c(ccc3c2c2ccccc2n3CCCF)C1=O` [Compound 4-2], for which the IC50 in the data set with Hela was 5 to 20 µM; in the data set with CWR22R, less than 1000 nM; in the data set with MDA-MB-231, 1 to 5 µM; with PC3, more than 20 µM.

For the molecule `CCCn1c2cccnc2c2c3c(ccc21)C(=O)NC3` [Compound 10-5], the IC50 is more than 20 µM in the data set on Hela, 1000 to 5000 nM with CWR22R, more than 20 µM in the data set on MDA-MB-231 and more than 20 µM in the data set on PC3.

With `CCCn1c2ccccc2c2c3occc(=O)c3ccc21` [Compound 3-3], the IC50 in the data set with Hela was more than 20 µM; with CWR22R, less than 1000 nM; in the data set with MDA-MB-231 it was 5 to 20 µM; in the data set on PC3 it was more than 20 µM.
